# Experimental data as given in patent US20120277269A1 (priority 2008, published 2012).
# Where “and” joins values, the source holds several entries; their conditions need not be identical. Equal values may be shown once. Read-outs that look alike come from different tables or passages of the source.
# How the values were obtained:
# [1] = system: Patients with Non-Valvular Atrial Fibrillation; details: in vivo; cited from earlier work
# [2] = system: patients with atrial fibrillation
# Description: The PETRO-Ex study was conducted in 52 centers in the United States, Denmark, The Netherlands, and Sweden.
# PETRO-Ex began while the PETRO study was ongoing and investigators were initially kept blinded to patient treatment group until PETRO was completed.
# Data were summarized descriptively; no hypothesis was to be tested. Events were analyzed on the basis of the treatment at onset. Incidences were reported as number of patients with events as well as normalized to 100 patient-years on the respective treatment.
# Patients who completed PETRO on 50 mg b.i.d. were switched to 150 mg q.d. upon entry in the PETRO-Ex study (N=93 patients). […] Patients who were down titrated to 50 mg q.d. based on a glomerular filtration rate ≦50 mL/min during PETRO were excluded from the long-term trial; patients down-titrated in other dose levels remained on the q.d. treatment at that dose.
# The total exposure reflects both trials, PETRO and PETRO-Ex, together.
# [3] = system: patients with chronic atrial fibrillation; assay: PETRO phase 2 12-week dose finding study; type: in vivo, human
# Source text: Primary endpoints were bleeding events and changes in D-dimer. […] Minor bleeding was dose related.
# [4] = human, in vivo
# Description: Ezekowitz M D, et al., Dabigatran with or without concomitant aspirin compared with warfarin alone in patients with nonvalvular atrial fibrillation (PETRO study), Am. […] The PETRO study is described below.
# Peak levels are seen within 2-3 hours of oral administration. […] Steady-state is reached within 2-3 days with a twice daily regimen. […] The remainder undergoes conjugation with glucuronic acid to form acylglucuronides which are excreted primarily in the bile.
# [5] = system: activated partial thromboplastin time (aPTT), ecarin clotting time, and thrombin clotting time; assay: Anticoagulant pharmacodynamics (clotting times)
# [6] = system: patients with atrial fibrillation at risk of stroke; parameters: Stroke, Ischemic or Unspecified, RR: dose or concentration left out as unconfirmed
# Source text: Median follow-up was 2.0 years and the primary outcome was stroke or systemic embolism.
# Patients were recruited from 951 clinical centers in 44 countries. In brief, patients were eligible if they had atrial fibrillation documented on electrocardiogram at screening or within 6 months; and at least one of the following: prior stroke or transient ischemic attack; left ventricular ejection fraction less than 40%; New York Heart Association heart failure symptoms of Class 2 or greater within 6 months; age at least 75 years; or age at least 65 years with diabetes mellitus, hypertension or coronary artery disease.
# The time in therapeutic range was calculated by the method of Rosendaal (Rosendaal F R, et al., A method to determine the optimal intensity of oral anticoagulant therapy, Thromb Haemost, 1993, 69:236-239), excluding INRs from the first week and after discontinuations. […] Concomitant use of aspirin (less than 100 mg/day) or other antiplatelet agents was allowed.
# Liver function testing was performed monthly during the first year of follow-up.
# The primary study outcome was stroke or systemic embolism. The primary safety outcome was major hemorrhage. Secondary outcomes were stroke, systemic embolism and death. Other outcomes were myocardial infarction, pulmonary embolism, transient ischemic attacks, and hospitalizations. The primary net benefit-risk outcome was the composite of stroke, systemic embolism, pulmonary embolism, myocardial infarction, death or major hemorrhage. Stroke was defined as sudden onset of focal neurological deficit consistent with the territory of a major cerebral artery and categorized as ischemic, hemorrhagic or unspecified. Hemorrhagic transformation of ischemic stroke was not considered as hemorrhagic stroke. Intracranial hemorrhage included hemorrhagic stroke and sub-dural or sub-arachnoid hemorrhage. Systemic embolism was an acute vascular occlusion of an extremity or organ documented by imaging, surgery or autopsy. Major bleeding was defined as a reduction in hemoglobin level of at least […] or transfusion of at least 2 units of blood or symptomatic bleeding in a critical area or organ. Life-threatening bleeding was a subset of major bleeding that included fatal bleeding, symptomatic intracranial bleeding, bleeding with hemoglobin decrease of more than […] or requiring transfusion of more than 4 units of blood or requiring inotropic agents or necessitating surgery. All other bleeding was considered minor.
# All primary and secondary outcome events were blindly and doubly adjudicated. An international team of adjudicators reviewed documents in local languages after blinding; or documents were translated by a independent group and blinded centrally. All transient ischemic attacks were reviewed to ensure that strokes had not been missed. To detect possible unreported events, symptom questionnaires were regularly administered to patients, and adverse events and hospitalization reports were scrutinized for unreported primary or secondary outcomes.
# If maximum of the two p-values was greater than 0.025, the minimum of the two p-values must be less than 0.0125, one-sided, to claim statistical significance. All analyses were based on intention-to-treat.
# [7] = individual patients with LFT abnormalities, one table line per patient (age c0, sex c1), # = with concomitant Bilirubin elevation to >2xULN
structure (smiles),measurement,setting,value
CCOC(=O)CN[C@@H](C(=O)N1CC[C@H]1C(=O)NCc1ccc(/C(N)=N\O)cc1)C1CCCCC1 [Ximelagatran],Hepatotoxicity,[1],found to be hepatotoxic
"CCCCCCOC(=O)NC(=N)c1ccc(NCc2nc3cc(C(=O)N(CCC(=O)OCC)c4ccccn4)ccc3n2C)cc1 [Dabigatran etexilate, 1-methyl-2-[N-[4-(N-n-hexyloxycarbonylamidino)phenyl]aminomethyl]benzimidazol-5-ylcarboxylic ac id-N-(2-pyridyl)-N-(2-ethoxycarbonylethyl)amides]","ALT or AST >2xULN, number of patients",[2]; 50 mg b.i.d.,0
same,"ALT or AST >3xULN and Bili >2xULN within 30 days, number of patients",[2]; 50 mg b.i.d.,0
same,"ALT or AST >3xULN, number of patients",[2]; 50 mg b.i.d.,0
same,"ALT or AST >5xULN, number of patients",[2]; 50 mg b.i.d.,0
same,"Adverse Events leading to premature discontinuation, number of patients",[2]; 50 mg b.i.d.,5
same,"MI, number of patients",[2]; 50 mg b.i.d.,0
same,"Major Bleeds with aspirin, number of patients",[2]; 50 mg b.i.d.,0
same,"Major Bleeds without aspirin, number of patients",[2]; 50 mg b.i.d.,0
same,"Major Bleeds, number of patients",[2]; 50 mg b.i.d.,0
same,"Other MACE, number of patients",[2]; 50 mg b.i.d.,2
same,"Stroke and Systemic Thromboembolism, number of patients",[2]; 50 mg b.i.d.,3
same,"TIA, number of patients",[2]; 50 mg b.i.d.,0
same,"ALT or AST >2xULN, number of patients",[2]; 50 mg q.d.,0
same,"ALT or AST >3xULN and Bili >2xULN within 30 days, number of patients",[2]; 50 mg q.d.,0
same,"ALT or AST >3xULN, number of patients",[2]; 50 mg q.d.,0
same,"ALT or AST >5xULN, number of patients",[2]; 50 mg q.d.,0
same,"Adverse Events leading to premature discontinuation, number of patients",[2]; 50 mg q.d.,0
same,"MI, number of patients",[2]; 50 mg q.d.,0
same,"Major Bleeds with aspirin, number of patients",[2]; 50 mg q.d.,0
same,"Major Bleeds without aspirin, number of patients",[2]; 50 mg q.d.,0
same,"Major Bleeds, number of patients",[2]; 50 mg q.d.,0
same,"Other MACE, number of patients",[2]; 50 mg q.d.,0
same,"Stroke and Systemic Thromboembolism, number of patients",[2]; 50 mg q.d.,0
same,"TIA, number of patients",[2]; 50 mg q.d.,0
same,"ALT or AST >2xULN, number of patients",[2]; 150 mg b.i.d.,21
same,"ALT or AST >3xULN and Bili >2xULN within 30 days, number of patients",[2]; 150 mg b.i.d.,3
same,"ALT or AST >3xULN, number of patients",[2]; 150 mg b.i.d.,13
same,"ALT or AST >5xULN, number of patients",[2]; 150 mg b.i.d.,7
same,"Adverse Events leading to premature discontinuation, number of patients",[2]; 150 mg b.i.d.,67
same,"MI, number of patients",[2]; 150 mg b.i.d.,6
same,"Major Bleeds with aspirin, number of patients",[2]; 150 mg b.i.d.,11
same,"Major Bleeds without aspirin, number of patients",[2]; 150 mg b.i.d.,18
same,"Major Bleeds without aspirin, rate",[2]; 150 mg b.i.d.,3.2 % per year
same,"Major Bleeds, number of patients",[2]; 150 mg b.i.d.,29
same,"Other MACE, number of patients",[2]; 150 mg b.i.d.,7
same,"Stroke and Systemic Thromboembolism, number of patients",[2]; 150 mg b.i.d.,7
same,"TIA, number of patients",[2]; 150 mg b.i.d.,1
same,"ALT or AST >2xULN, number of patients",[2]; 150 mg q.d.,2
same,"ALT or AST >3xULN and Bili >2xULN within 30 days, number of patients",[2]; 150 mg q.d.,0
same,"ALT or AST >3xULN, number of patients",[2]; 150 mg q.d.,0
same,"ALT or AST >5xULN, number of patients",[2]; 150 mg q.d.,0
same,"Adverse Events leading to premature discontinuation, number of patients",[2]; 150 mg q.d.,8
same,"MI, number of patients",[2]; 150 mg q.d.,0
same,"Major Bleeds with aspirin, number of patients",[2]; 150 mg q.d.,0
same,"Major Bleeds without aspirin, number of patients",[2]; 150 mg q.d.,3
same,"Major Bleeds without aspirin, rate",[2]; 150 mg q.d.,6.5 % per year
same,"Major Bleeds, number of patients",[2]; 150 mg q.d.,3
same,"Other MACE, number of patients",[2]; 150 mg q.d.,0
same,"Stroke and Systemic Thromboembolism, number of patients",[2]; 150 mg q.d.,3
same,"TIA, number of patients",[2]; 150 mg q.d.,0
same,"ALT or AST >2xULN, number of patients",[2]; 300 mg b.i.d.,4
same,"ALT or AST >3xULN and Bili >2xULN within 30 days, number of patients",[2]; 300 mg b.i.d.,0
same,"ALT or AST >3xULN, number of patients",[2]; 300 mg b.i.d.,2
same,"ALT or AST >5xULN, number of patients",[2]; 300 mg b.i.d.,1
same,"Adverse Events leading to premature discontinuation, number of patients",[2]; 300 mg b.i.d.,21
same,"MI, number of patients",[2]; 300 mg b.i.d.,0
same,"Major Bleeds with aspirin, number of patients",[2]; 300 mg b.i.d.,6
same,"Major Bleeds without aspirin, number of patients",[2]; 300 mg b.i.d.,4
same,"Major Bleeds without aspirin, rate",[2]; 300 mg b.i.d.,6.3 % per year
same,"Major Bleeds, number of patients",[2]; 300 mg b.i.d.,10
same,"Other MACE, number of patients",[2]; 300 mg b.i.d.,1
same,"Stroke and Systemic Thromboembolism, number of patients",[2]; 300 mg b.i.d.,1
same,"TIA, number of patients",[2]; 300 mg b.i.d.,0
same,"ALT or AST >2xULN, number of patients",[2]; 300 mg q.d.,3
same,"ALT or AST >3xULN and Bili >2xULN within 30 days, number of patients",[2]; 300 mg q.d.,1
same,"ALT or AST >3xULN, number of patients",[2]; 300 mg q.d.,3
same,"ALT or AST >5xULN, number of patients",[2]; 300 mg q.d.,3
same,"Adverse Events leading to premature discontinuation, number of patients",[2]; 300 mg q.d.,19
same,"MI, number of patients",[2]; 300 mg q.d.,1
same,"Major Bleeds with aspirin, number of patients",[2]; 300 mg q.d.,2
same,"Major Bleeds without aspirin, number of patients",[2]; 300 mg q.d.,3
same,"Major Bleeds without aspirin, rate",[2]; 300 mg q.d.,2.1 % per year
same,"Major Bleeds, number of patients",[2]; 300 mg q.d.,5
same,"Other MACE, number of patients",[2]; 300 mg q.d.,1
same,"Stroke and Systemic Thromboembolism, number of patients",[2]; 300 mg q.d.,5
same,"TIA, number of patients",[2]; 300 mg q.d.,0
same,"Serious adverse events: cardiac disorders, number of patients",[2]; PETRO-Ex,80
same,"Serious adverse events: gastrointestinal disorders, number of patients",[2]; PETRO-Ex,28
same,"Serious adverse events: infections, number of patients",[2]; PETRO-Ex,34
same,"Serious adverse events: nervous system disorders, number of patients",[2]; PETRO-Ex,33
same,"Serious adverse events, number of patients","[2]; PETRO-Ex, including bleeding and thrombotic events",184
same,"ALT or AST >2xULN, number of patients","[2]; Total, all doses",30
same,"ALT or AST >3xULN and Bili >2xULN within 30 days, number of patients","[2]; Total, all doses",4
same,"ALT or AST >3xULN, number of patients","[2]; Total, all doses",18
same,"ALT or AST >5xULN, number of patients","[2]; Total, all doses",11
same,"Adverse Events leading to premature discontinuation, number of patients","[2]; Total, all doses",120
same,"MI, number of patients","[2]; Total, all doses",7
same,"Major Bleeds with aspirin, number of patients","[2]; Total, all doses",19
same,"Major Bleeds without aspirin, number of patients","[2]; Total, all doses",26
same,"Major Bleeds without aspirin, rate","[2]; Total, all doses",3.2 % per year
same,"Major Bleeds, number of patients","[2]; Total, all doses",44
same,"Other MACE, number of patients","[2]; Total, all doses",11
same,"Stroke and Systemic Thromboembolism, number of patients","[2]; Total, all doses",20
same,"TIA, number of patients","[2]; Total, all doses",1
same,"ALT or AST >3xULN and Bili >2xULN within 30 days, number of patients","[2]; Total, all doses, listed as dabigatran etexilate",four
same,"Major bleeding events, number","[3]; 300 mg b.i.d. plus ASA groups, 12 weeks",Four
same,Elevated transaminases >3× upper limit of normal (ULN),[3]; all dabigatran etexilate-treated patients,0.9%
same,Minor bleeding,[3]; in vivo,dose related
same,"Oral bioavailability, average",[4]; po,6.5%
same,Time to peak levels,[4]; po,2 to 3 h
same,Onset of anticoagulant effect after dosing,[5],within one hour
[H]/N=C(/N)c1ccc(NCc2nc3cc(C(=O)N(CCC(=O)O)c4ccccn4)ccc3n2C)cc1 [Dabigatran],"Stroke, Ischemic or Unspecified, RR",[6],0.68
same,"Stroke, systemic embolism, pulmonary embolism, myocardial infarction death or major bleed (net benefit), RR",[6]; Dabigatran 110 mg vs. Warfarin,0.92
same,"Stroke, systemic embolism, pulmonary embolism, myocardial infarction death or major bleed (net benefit), RR",[6]; Dabigatran 150 mg vs. 110 mg,0.98
same,"Stroke, systemic embolism, pulmonary embolism, myocardial infarction death or major bleed (net benefit), RR",[6]; Dabigatran 150 mg vs. Warfarin,0.90
same,"Stroke, RR",[6]; Dabigatran 180 mg vs. 110 mg,0.70
same,Hepatotoxicity in serial measurement of liver function tests,"[6]; human, in vivo",no evidence of hepatotoxicity
same,LFT abnormality ALT/ULN,[2]; [7],>5x (4×) and >5x^# (2×) and >3x (5×) and >3x^#
same,LFT abnormality AST/ULN,[2]; [7],>5x^# (4×) and >5x (4×) and >3x (5×)
same,Time to steady-state,[4],2 to 3 days
same,"Effect on aPTT, ecarin clotting time, and thrombin clotting time",[5],dose dependent prolongation
